We go through two compounds from publication PMC8112869, “Therapeutic inhibition of keratinocyte TRPV3 sensory channel by local anesthetic dyclonine” (eLife, 2021).

In one assay the target is T1, mouse TRPV3 (Mus musculus, UniProt Q8K424).
T1 sequence (Q8K424 1-791): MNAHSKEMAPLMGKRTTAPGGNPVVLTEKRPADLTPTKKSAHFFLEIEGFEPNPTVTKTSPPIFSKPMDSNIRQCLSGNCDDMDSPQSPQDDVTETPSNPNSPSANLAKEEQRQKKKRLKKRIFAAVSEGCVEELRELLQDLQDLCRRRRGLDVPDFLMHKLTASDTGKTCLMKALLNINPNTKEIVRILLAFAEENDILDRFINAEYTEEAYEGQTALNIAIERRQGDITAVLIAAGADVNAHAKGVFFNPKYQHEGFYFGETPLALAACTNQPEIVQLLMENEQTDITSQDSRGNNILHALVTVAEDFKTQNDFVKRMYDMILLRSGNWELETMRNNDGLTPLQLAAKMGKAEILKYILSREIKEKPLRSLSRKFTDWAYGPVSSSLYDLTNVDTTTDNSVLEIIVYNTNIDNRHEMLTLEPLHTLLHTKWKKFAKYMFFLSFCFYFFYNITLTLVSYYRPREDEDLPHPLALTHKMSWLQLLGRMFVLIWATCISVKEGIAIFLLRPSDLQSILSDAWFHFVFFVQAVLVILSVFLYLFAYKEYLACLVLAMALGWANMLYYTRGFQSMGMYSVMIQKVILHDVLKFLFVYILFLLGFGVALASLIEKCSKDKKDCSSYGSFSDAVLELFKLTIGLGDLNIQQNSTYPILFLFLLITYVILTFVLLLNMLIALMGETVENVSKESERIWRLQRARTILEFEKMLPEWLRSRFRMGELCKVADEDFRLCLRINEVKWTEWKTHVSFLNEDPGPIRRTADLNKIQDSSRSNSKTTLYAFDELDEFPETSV
The assay is described as follows: cell-based. The conditions noted are these: for TRPV3 currents response, of control level: 100 µM 2-APB, –60 mV, after sensitization; for EC50: EC50 of 2-APB for TRPV3 activation. The text has this: The WT mouse TRPV3 (mTRPV3), human TRPV3 (hTRPV3), rat TRPV1, rat TRPV2, rat TRPM8, and mouse TRPA1 cDNAs were generously provided by Dr. Feng Qin (State University of New York at Buffalo, Buffalo, USA). The GFP-mTRPV3 WT and the mutants (mTRPV3-G573S and mTRPV3-G573C) in pcDNA4/TO vector were gifts from Dr. Michael X Zhu (The University of Texas Health Science Center at Houston, Houston, USA). The WT fTRPV3 was kindly provided by Dr. Makoto Tominaga (Department of Physiological Sciences, SOKENDAI, Okazaki, Japan). All mutations were made using the overlap-extension polymerase chain reaction method as previously described ([Tian et al., 2019]). The resulting mutations were then verified by DNA sequencing. HEK 293T and T-Rex 293 cells were grown in Dulbecco’s modified Eagle’s medium (DMEM, Thermo Fisher Scientific, MA) containing 4.5 mg/ml glucose, 10% heat-inactivated fetal bovine serum (FBS), 50 units/ml penicillin, and […], and were incubated at 37°C in a humidified incubator gassed with 5% CO2. For T-Rex 293, blasticidin S (10 μg/ml) was also included. Cells grown into ~80% confluence were transfected with the desired DNA constructs using either the standard calcium phosphate precipitation method or lipofectamine 2000 (Invitrogen, Carlsbad, CA) following the protocol provided by the manufacturer. Transfected HEK 293T cells were reseeded on 12 mm round glass coverslips coated by poly-L-lysine. Experiments took place ~12–24 hr after transfection.
Conventional whole-cell and excised patch-clamp recording methods were used. For the recombinant expressing system, green fluorescent EGFP was used as a surface marker for gene expression. Recording pipettes were pulled from borosilicate glass capillaries (World Precision Instruments) and fire-polished to a resistance between 2 and 4 MΩ when filled with internal solution containing (in mM) 140 CsCl, 2.0 MgCl2, 5 EGTA, and 10 HEPES, pH 7.4 (adjusted with CsOH). Bath solution contained (in mM): 140 NaCl, 5 KCl, 3 EGTA, and 10 HEPES, pH 7.4 adjusted with NaOH. For recordings in keratinocytes, the bath saline consisted of (in mM) 140 NaCl, 5 KCl, 2 MgCl2, 2 CaCl2, 10 glucoses, and 10 HEPES, pH 7.4 adjusted with NaOH, and the pipette solution contained (in mM) 140 CsCl, 5 EGTA, and 10 HEPES, pH 7.3 adjusted with CsOH. For single-channel recordings, the pipette solution and bath solution were symmetrical and contained (in mM) 140 NaCl, 5 KCl, 3 EGTA, and 10 HEPES, pH 7.4. Isolated cells were voltage clamped and held at –60 mV using an EPC10 amplifier with the Patchmaster software (HEKAElectronics, Lambrecht, Germany). For a subset of recordings, currents were amplified using an Axopatch 200B amplifier (Molecular Devices, Sunnyvale, CA) and recorded through a BNC-2090/MIO acquisition system (National Instruments, Austin, TX) using QStudio developed by Dr. Feng Qin at State University of New York at Buffalo. Whole-cell recordings were typically sampled at 5 kHz and filtered at 1 kHz, and single-channel recordings were sampled at 25 kHz and filtered at 10 kHz. The compensation of pipette series resistance and capacitance was compensated using the built-in circuitry of the amplifier (>80%) to reduce voltage errors. Exchange of external solution was performed using a gravity-driven local perfusion system. […] Dyclonine hydrochloride, MTSET and carvacrol were purchased from MCE (MedChemExpress). Unless otherwise noted, all chemicals were purchased from Sigma (Millipore Sigma, St. Louis, MO). Water-insoluble reagents were dissolved in pure ethanol or DMSO to make a stock solution and diluted into the recording solution at the desired final concentrations before the experiment. […] In the scratching behavior experiments, carvacrol was first dissolved in 10% ethanol and then diluted in normal saline before administration.

Assay [1] relates to T-Rex 293 cells expressing TRPV3 G573C. In words: Cell death analysis by flow cytometry (propidium iodide), cells expressing G573C mutant. It is filed as cell-based, Homo sapiens. The method, then: T-Rex 293 cells were grown in DMEM containing 4.5 mg/ml glucose, 10% (vol/vol) FBS, 50 units/ml penicillin, 50 μg/ml streptomycin, and blasticidin S (10 μg/ml), and were incubated at 37°C in a humidified incubator gassed with 5% CO2. Transfections were performed in wells of a 24-well plate using lipofectamine 2000 (Invitrogen). […] Expression of GFP fluorescence detected by an epifluorescence microscope was used as an indicator of gene expression. After treatments with the compounds for 12 hr, cells were collected, washed twice with PBS, resuspended, and then dyed with propidium iodide (PI, Thermo Fisher Scientific) in the dark according to the manufacturer’s instructions. The membrane integrity of the cells was assessed using a BD FACSCelesta flow cytometer equipped with BD Accuri C6 software (BD Biosciences, USA).
A general note: In flow cytometry, cells or beads pass a laser one at a time.

[2] abbreviates: dyclonine (50 μM) or 2-APB (30 μM) alone, averaged from seven experiments.

A word on the IC50: it is the concentration at which inhibition is half-maximal. Lower therefore signals higher potency. Usually inhibition stands for the drop in the measured response relative to a control, in per cent. In general, EC50 refers to the concentration at which the effect is half-maximal.

Take `CCCCOc1ccc(C(=O)CCN2CCCCC2)cc1` [dyclonine]: half-maximal inhibition against mouse TRPV3 (IC50) required 3.2 ± 0.24 µM. The “TRPV3 currents response, of control level” value on mouse TRPV3 (5 µM dyclonine) was 30% ± 2%; at mouse TRPV3 (10 µM dyclonine) it was 15% ± 3%. The “initial TRPV3 current” value on mouse TRPV3 (100 μM 2-APB with 5 μM dyclonine) was 31.12 ± 2.86 pA/pF. Further, the “Hill coefficient nH of inhibition of TRPV3 currents” value at mouse TRPV3 (2-APB-evoked, WT mouse TRPV3) is 2.2 ± 0.32. In addition, on mouse TRPV3 (HEK-293T, read-out: inhibition of TRPV3 current (reduction in current amplitude)), the inhibition at 10 µM amounted to 87%. In addition, the “repetitions to reach the current level of full sensitization” value on mouse TRPV3 (repeated 100 μM 2-APB with 5 μM dyclonine) is given as ~ 16 repetitions. Also, the cell death ratio in assay [1] (dyclonine (50 μM) added to 2-APB (30 μM), averaged) was 13.85% ± 2.49%; in assay [1] (setting [2]), 14.98% ± 4.40%.

On to `NCCOB(c1ccccc1)c1ccccc1` [2-APB, 2-aminoethoxydiphenyl borate], for which the “initial TRPV3 current” value on mouse TRPV3 (100 μM 2-APB without dyclonine) was found to be 86.43 ± 5.9 pA/pF. The 50% effective concentration (EC50) is 22 ± 0.86 µM at mouse TRPV3 (with 3 μM dyclonine) and 22.93 ± 0.02 µM on mouse TRPV3 (without dyclonine, after full sensitization). At mouse TRPV3 (repeated 100 μM 2-APB alone), the “repetitions to reach full sensitization level” value is reported as “approximately eight”. The “Hill coefficient nH of 2-APB activation” value at mouse TRPV3 (with 3 μM dyclonine) is 1.7 ± 0.1; at mouse TRPV3 (without dyclonine), 1.6 ± 0.1. Also, the cell death ratio in assay [1] (setting [2]) is listed as 47.91% ± 5.54%.
